Here are results for nine compounds from patent US12384808B2, “Modulators of TNF-α activity” (Forward Therapeutics, Inc., priority 2022, dated 2025).

Molecules are shown by their SMILES.

The target in one assay is TNFα (Homo sapiens, UniProt P01375). Kind of assay: TNFα Induced HEK Blue Cellular Assay. The assay is classed as cell-based.
Chain of TNFα (P01375 77-233 limits assumed): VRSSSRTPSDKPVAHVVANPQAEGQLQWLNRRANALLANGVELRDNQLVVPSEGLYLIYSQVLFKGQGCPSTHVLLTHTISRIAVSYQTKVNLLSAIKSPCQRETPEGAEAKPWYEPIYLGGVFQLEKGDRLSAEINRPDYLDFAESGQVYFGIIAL
Settings: not given
The procedure, abridged:
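Reporter cells (10,000/well, DMEM + 10% FBS) with compound (final […] to 0.5 nM) stimulated with 100 pg/ml TNFα, 24 h at 37 °C, 5% CO2. Secreted alkaline phosphatase read at 620 nm; IC50 by 4-parameter logistic fit after background correction against stimulated/unstimulated DMSO controls.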
As a reminder, the IC50 is the concentration that inhibits the measured activity by half. Regarding `[2H]C([2H])([2H])N1C(=O)c2cccc(OC(F)F)c2[C@H]2C[C@@H]1c1nc3ccc(-c4ccc(CP(=O)(OC)OC)c(F)c4)cc3n12` [Example 136, dimethyl (4-((7R,14R)-1-(difluoromethoxy)-6-(methyl-d3)-5-oxo-5,6,7,14-tetrahydro-7,14-methanobenzo[f]benzo[4,5]imidazo[1,2-a][1,4]diazocin-11-yl)-2-fluorobenzyl)phosphonate], the concentration for half-maximal inhibition (IC50) was < 100 nM.

Staying with this assay, now noted: HEK Blue TNFα reporter cells, TNFα 100 pg/ml, 24 hrs at 37° C., secreted alkaline phosphatase (QUANTI-Blue) read at 620 nm; read-out: IC50 value.
For the compound `[2H]C([2H])([2H])N1C(=O)c2cccc(OC(F)F)c2[C@H]2C[C@@H]1c1nc3ccc(-c4cnc(P(C)(C)=O)c(C)c4)cc3n12` [Example 134, (7R,14R)-1-(difluoromethoxy)-11-(6-(dimethylphosphoryl)-5-methylpyridin-3-yl)-6-(methyl-d3)-6,7-dihydro-7,14-methanobenzo[f]benzo[4,5]imidazo[1,2-a][1,4]diazocin-5(14H)-one], the IC50 was < 100 nM.
Still for that read-out and setting: next, `[2H]C([2H])([2H])N1C(=O)c2cccc(OC(F)F)c2[C@H]2C[C@@H]1c1nc3c(F)cc(-c4ccc(P(C)(C)=O)c(F)c4)cc3n12` [Example 135, (7R,14R)-1-(difluoromethoxy)-11-(4-(dimethylphosphoryl)-3-fluorophenyl)-9-fluoro-6-(methyl-d3)-6,7-dihydro-7,14-methanobenzo[f]benzo[4,5]imidazo[1,2-a][1,4]diazocin-5(14H)-one]: < 100 nM; `CCP(=O)(CC)c1ccc(-c2ccc3nc4n(c3c2)[C@@H]2C[C@H]4NC(=O)c3cccc(OC(F)F)c32)cn1` [Example 137, (7R,14R)-11-(6-(diethylphosphoryl)pyridin-3-yl)-1-(difluoromethoxy)-6,7-dihydro-7,14-methanobenzo[f]benzo[4,5]imidazo[1,2-a][1,4]diazocin-5(14H)-one]: < 100 nM.
Same read-out and setting: next, `CCP(=O)(CC)c1ccc(-c2ccc3nc4n(c3c2)[C@@H]2C[C@H]4NC(=O)c3cccc(OC(F)F)c32)c(F)c1` [Example 138, (7R,14R)-11-(4-(diethylphosphoryl)-2-fluorophenyl)-1-(difluoromethoxy)-6,7-dihydro-7,14-methanobenzo[f]benzo[4,5]imidazo[1,2-a][1,4]diazocin-5(14H)-one]: < 100 nM; `[2H]C([2H])([2H])N1C(=O)c2cccc(OC(F)F)c2[C@H]2C[C@@H]1c1nc3ccc(-c4ccc(P(C)(C)=O)c(F)c4)c(F)c3n12` [Example 139, (7R,14R)-1-(difluoromethoxy)-11-(4-(dimethylphosphoryl)-3-fluorophenyl)-12-fluoro-6-(methyl-d3)-6,7-dihydro-7,14-methanobenzo[f]benzo[4,5]imidazo[1,2-a][1,4]diazocin-5(14H)-one]: < 100 nM.
Still for that read-out and setting: next, `CP(C)(=O)c1ccc(-c2ccc3nc4n(c3c2F)[C@@H]2C[C@H]4NC(=O)c3cccc(OC(F)F)c32)cc1F` [Example 140, (7R,14R)-1-(difluoromethoxy)-11-(4-(dimethylphosphoryl)-3-fluorophenyl)-12-fluoro-6,7-dihydro-7,14-methanobenzo[f]benzo[4,5]imidazo[1,2-a][1,4]diazocin-5(14H)-one]: < 100 nM; `[2H]C([2H])([2H])N1C(=O)c2cccc(OC(F)F)c2[C@H]2C[C@@H]1c1nc3ccc(-c4ccc(P(C)(C)=O)c(F)c4)nc3n12` [Example 141, (7R,14R)-1-(difluoromethoxy)-11-(4-(dimethylphosphoryl)-3-fluorophenyl)-6-(methyl-d3)-6,7-dihydro-7,14-methanobenzo[f]pyrido[3′,2′:4,5]imidazo[1,2-a][1,4]diazocin-5(14H)-one]: < 100 nM; `[2H]C([2H])([2H])N1C(=O)c2cccc(OC(F)F)c2[C@H]2C[C@@H]1c1nc3ccc(-c4cc(F)c(P(C)(C)=O)cc4F)nc3n12` [Example 142, (7R,14R)-1-(difluoromethoxy)-11-(4-(dimethylphosphoryl)-2,5-difluorophenyl)-6-(methyl-d3)-6,7-dihydro-7,14-methanobenzo[f]pyrido[3′,2′:4,5]imidazo[1,2-a][1,4]diazocin-5(14H)-one]: < 100 nM.
